# Measurements: patent US5856509A, “Derivatives of imidazole, their preparation process, the new intermediates obtained, their use as medicaments and the pharmaceutical compositions containing them” (Roussel Uclaf, priority 1994, dated 1999)
# Legend:
# A receptor of endothelin = target: T1, A receptor of endothelin (Rattus norvegicus, UniProt P26684); experiment: Study of the activity on the A receptor of endothelin: displacement of 125I Endothelin on membrane preparation of rat heart (ventricles); format: binding; details: Table II, rat heart (ventricles) membranes, 25° C., 60 minutes, read-out: B receptor of endothelin IC50 in nanomoles
# T1 construct: A membrane preparation is produced from the heart (ventricles) of a rat; from tissue; host or cells: rat heart (ventricles), membrane preparation
# T1 sequence (P26684 21-426): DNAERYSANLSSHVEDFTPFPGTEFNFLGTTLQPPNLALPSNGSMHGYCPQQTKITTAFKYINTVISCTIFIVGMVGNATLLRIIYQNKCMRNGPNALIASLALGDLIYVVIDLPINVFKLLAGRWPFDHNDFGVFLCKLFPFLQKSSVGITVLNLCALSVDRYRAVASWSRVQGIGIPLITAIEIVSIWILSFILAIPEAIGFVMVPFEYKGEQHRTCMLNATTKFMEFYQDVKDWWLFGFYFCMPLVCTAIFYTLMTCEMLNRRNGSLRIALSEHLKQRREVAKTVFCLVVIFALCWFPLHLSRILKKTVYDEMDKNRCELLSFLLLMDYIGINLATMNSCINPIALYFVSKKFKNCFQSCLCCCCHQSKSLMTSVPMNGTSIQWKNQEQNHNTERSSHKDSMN
# Procedure: STUDY OF THE ACTIVITY ON THE A RECEPTOR OF ENDOTHELIN
# A membrane preparation is produced from the heart (ventricles) of a rat. The tissue is ground up in a POLYTRON in a 50 mM Tris buffer pH=7.4.
# After 30 minutes at 25° C. (W.B.) the homogenate is centrifuged at 30000 g for 15 minutes (2 centrifugations with intermediate take up in the Tris buffer pH. 7.4).
# (§1) The pellets are resuspended in an incubation buffer (25 mM Tris, 5 microg/ml pepstatin A, 3 microg/ml aprotinin, 0.1 mM PMSF, 3 mM EDTA, 1 mM EGTA pH 7.4).
# (§2) 2 ml aliquots are distributed into hemolysis tubes and ^125 I Endothelin (approximately 50000 dpm/tube) and the product to be studied are added. (The product is first tested at 3×10^-5 M three times). When the tested product displaces more than 50% of the radioactivity specifically bound to the receptor, it is tested again according to a range of 7 concentrations so as to determine the concentration which inhibits the radioactivity specifically bound to the receptor by 50%. In this way the 50% inhibitory concentration is determined.
# (§3) The non-specific bond is determined by the addition of 10^-6 M endothelin (three times). After incubation at 25° C. for 60 minutes, putting back in the water bath at 0° C., for 5 minutes, filtering under reduced pressure, rinsing with Tris buffer 7.4, the radioactivity is counted in the presence of scintillating Triton.
# (§4) The result is expressed directly as the 50% inhibitory concentration (IC50), that is to say as the concentration of product studied expressed in nM, necessary to displace 50% of the specific radioactivity bound to the receptor studied.
# B receptor of endothelin = target: T2, B receptor of endothelin (Rattus norvegicus, UniProt P21451); experiment: Study of the activity on the B receptor of endothelin: displacement of 125I Endothelin on membrane preparation of rat posterior cortex plus cerebellum; format: binding; details: Table I, rat posterior cortex plus cerebellum membranes, 25° C., 60 minutes, read-out: B receptor of endothelin IC50 in nanomoles
# T2 construct: A membrane preparation is produced from the posterior cortex plus cerebellum of a rat; from tissue; host or cells: rat posterior cortex plus cerebellum, membrane preparation
# T2 sequence (P21451 27-442): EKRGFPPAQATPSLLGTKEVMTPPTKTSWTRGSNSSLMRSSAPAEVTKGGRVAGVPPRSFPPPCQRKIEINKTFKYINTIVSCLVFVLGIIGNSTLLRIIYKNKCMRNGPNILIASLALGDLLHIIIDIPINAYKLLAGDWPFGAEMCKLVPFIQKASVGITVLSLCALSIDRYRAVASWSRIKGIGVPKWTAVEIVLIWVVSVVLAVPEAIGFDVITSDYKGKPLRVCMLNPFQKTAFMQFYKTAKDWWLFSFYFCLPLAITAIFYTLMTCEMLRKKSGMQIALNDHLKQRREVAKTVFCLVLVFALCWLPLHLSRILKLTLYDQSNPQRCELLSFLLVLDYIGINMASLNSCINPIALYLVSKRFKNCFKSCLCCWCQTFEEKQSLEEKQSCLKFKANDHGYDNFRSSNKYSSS
# Procedure: STUDY OF THE ACTIVITY ON THE B RECEPTOR OF ENDOTHELIN
# A membrane preparation is produced from the posterior cortex plus cerebellum of a rat. The tissue is ground up in a POLYTRON in a 50 mM Tris buffer pH=7.4.
# After 30 minutes at 25° C. (W.B.) the homogenate is centrifuged at 30000 g for 15 minutes (2 centrifugations with intermediate take-up in the Tris buffer pH. 7.4).
# as §1, §2, §3, §4
IC50 (A receptor of endothelin),IC50 (B receptor of endothelin),Compound
167 nM,420 nM,"COc1ccc(CSc2nc(Sc3ccccc3)n(Cc3cc4c(cc3Cl)OCO4)c2C(=O)O)cc1 [Example 10, 1-((6-chloro-1,3-benzodioxol-5-yl)methyl)-4-(((4-methoxyphenyl)methyl)thio)-2-(phenylthio)-1H-imidazole-5-carboxylic acid]"
170 nM,110 nM,COc1ccc(Sc2nc(Sc3ccccc3)n(Cc3cc4c(cc3Cl)OCO4)c2C(=O)O)cc1 [Example 15]
230 nM,88 nM,"COc1ccc(Sc2nc(Sc3ccc(OC)cc3)n(Cc3cc4c(cc3Cl)OCO4)c2C(=O)O)cc1 [Example 18, 1-((6-chloro-1,3-benzodioxol-5-yl)methyl)-2,4-bis(4-(methoxyphenyl)thio)-1H-imidazole-5-carboxylic acid]"
